Results: patent publication US20080234266A1, “Squaric Acid Derivatives II” (priority 2005, published 2008)

Target: T1, CHK1 kinase (Homo sapiens, UniProt O14757)
T1 construct: glutathione S-transferase (GST); made in house; host or cells: Sf21 insect cells (S. frugiperda), baculovirus
T1 sequence (O14757 1-476): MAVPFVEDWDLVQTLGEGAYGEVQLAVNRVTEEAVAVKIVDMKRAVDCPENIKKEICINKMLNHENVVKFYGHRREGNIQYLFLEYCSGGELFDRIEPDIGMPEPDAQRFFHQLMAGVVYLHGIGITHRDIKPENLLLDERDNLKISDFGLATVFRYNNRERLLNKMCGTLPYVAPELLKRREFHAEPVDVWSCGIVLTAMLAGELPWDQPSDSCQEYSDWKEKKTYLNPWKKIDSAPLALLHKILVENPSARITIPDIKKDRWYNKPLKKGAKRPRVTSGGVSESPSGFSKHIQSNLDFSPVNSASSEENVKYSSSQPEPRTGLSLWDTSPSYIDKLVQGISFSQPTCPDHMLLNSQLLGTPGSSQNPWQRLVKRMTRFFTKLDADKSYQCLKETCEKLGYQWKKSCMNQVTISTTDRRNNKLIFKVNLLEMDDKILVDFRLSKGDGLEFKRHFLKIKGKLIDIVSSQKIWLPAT
Test: Flashplate method (CHK1), measurement of the CHK1 kinase activity
Assay type: biochemical
Details: class symbols; 'Affinity to receptors'
How it was run: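 GST-tagged CHK1 expressed in Sf21 insect cells, incubated at 30 °C with biotinylated CHKtide (0.15 μg per well) and γ33P-ATP in pH 7.5 buffer (EGTA, Mg acetate, mercaptoethanol, 0.1% BSA). Stopped with EDTA, captured on streptavidin Flashplates and counted by scintillation. IC50 set against uninhibited reaction and 0.1 μM staurosporine as zero.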

SMILES | IC50 [nM]
COc1cccc(C(CCC2OCCCO2)Nc2c(Nc3ccc4[nH]cnc4c3)c(=O)c2=O)c1 (stereo not shown) [Compound A138, 3-(1H-benzimidazol-5-ylamino)-4-[3-[1,3]-dioxan-2-yl-1-(3-methoxyphenyl)propyl-amino]cyclobut-3-ene-1,2-dione] | > 1000
O=c1c(NCCc2ccc(O)cc2)c(Nc2ccc3[nH]cnc3c2)c1=O [Compound A140, 3-(1H-benzimidazol-5-ylamino)-4-[2-(4-hydroxyphenyl)ethylamino]cyclobut-3-ene-1,2-dione] | > 1000
CN1CCN(c2ccc(CNc3c(Nc4ccc5[nH]cnc5c4)c(=O)c3=O)cc2)CC1 [Compound A141, 3-(1H-benzimidazol-5-ylamino)-4-[4-(4-methylpiperazin-1-yl)benzylamino]cyclobut-3-ene-1,2-dione] | > 1000
O=c1c(NCCc2cccc(O)c2)c(Nc2ccc3[nH]cnc3c2)c1=O [Compound A142, 3-(1H-benzimidazol-5-ylamino)-4-[2-(3-hydroxyphenyl)ethylamino]cyclobut-3-ene-1,2-dione] | > 1000
COc1ccccc1CCNc1c(Nc2ccc3[nH]cnc3c2)c(=O)c1=O [Compound A143, 3-(1H-benzimidazol-5-ylamino)-4-[2-(2-methoxyphenyl)ethylamino]cyclobut-3-ene-1,2-dione] | > 1000
COc1ccccc1CNc1c(Nc2ccc3[nH]cnc3c2)c(=O)c1=O [Compound A144, 3-(1H-benzimidazol-5-ylamino)-4-(2-methoxybenzylamino)cyclobut-3-ene-1,2-dione] | > 1000
CC(C)(C)OC(=O)N1CCC(Oc2ccccc2CNc2c(Nc3ccc4[nH]cnc4c3)c(=O)c2=O)CC1 [Compound A146, 3-(1H-benzimidazol-5-ylamino)-4-[2-(1-tert-butyloxycarbonylpiperidin-4-yloxy)benzyl-amino]cyclobut-3-ene-1,2-dione] | > 1000
O=c1c(NCc2ccccc2OC2CCNCC2)c(Nc2ccc3[nH]cnc3c2)c1=O [Compound A148, 3-(1H-benzimidazol-5-ylamino)-4-[2-(piperidin-4-yloxy)benzylamino]cyclobut-3-ene-1,2-dione] | > 1000
O=c1c(NCCc2ccccc2O)c(Nc2ccc3[nH]cnc3c2)c1=O [Compound A149, 3-(1H-benzimidazol-5-ylamino)-4-[2-(2-hydroxyphenyl)ethylamino]cyclobut-3-ene-1,2-dione] | > 1000
CNS(=O)(=O)c1ccc(CNc2c(Nc3ccc4[nH]cnc4c3)c(=O)c2=O)cc1 [Compound A152, 3-(1H-benzimidazol-5-ylamino)-4-[4-(N-methylaminosulfonyl)benzylamino]cyclobut-3-ene-1,2-dione] | > 1000
CNS(=O)(=O)c1ccc(CN(C)c2c(Nc3ccc4[nH]cnc4c3)c(=O)c2=O)cc1 [Compound A153, 3-(1H-benzimidazol-5-ylamino)-4-[4-(N-methylaminosulfonyl)benzyl-N-methylamino]-cyclobut-3-ene-1,2-dione] | > 1000
CNS(=O)(=O)c1ccccc1CNc1c(Nc2ccc3[nH]cnc3c2)c(=O)c1=O [Compound A154, 3-(1H-benzimidazol-5-ylamino)-4-[2-(N-methylaminosulfonyl)benzylamino]cyclobut-3-ene-1,2-dione] | > 1000
NS(=O)(=O)c1ccccc1CNc1c(Nc2ccc3[nH]cnc3c2)c(=O)c1=O [Compound A155, 3-(1H-benzimidazol-5-ylamino)-4-(2-amino-sulfonylbenzylamino)cyclobut-3-ene-1,2-dione] | > 1000
O=c1c(NCc2ccccc2O)c(Nc2ccc3[nH]cnc3c2)c1=O [Compound A158, 3-(1H-benzimidazol-5-ylamino)-4-(2-hydroxy-benzylamino)cyclobut-3-ene-1,2-dione] | > 1000
Cc1ccc(CC(O)c2cccc(CNc3c(Nc4ccc5[nH]cnc5c4)c(=O)c3=O)c2)cc1 (stereo not shown) [Compound A161, 3-(1H-benzimidazol-5-ylamino)-4-[3-(1-hydroxy-2-p-tolylethyl)benzylamino]cyclobut-3-ene-1,2-dione] | > 1000
O=c1c(NCc2cccc(OC(F)F)c2)c(Nc2ccc3nc[nH]c3c2)c1=O [Compound A164, 3-(3H-benzimidazol-5-ylamino)-4-(3-difluoro-methoxybenzylamino)cyclobut-3-ene-1,2-dione] | > 1000
CCN(CC)CCn1cnc2ccc(Nc3c(NCc4ccc(-c5nnn[nH]5)cc4)c(=O)c3=O)cc21 [Compound A167, 3-[3-(2-diethylaminoethyl)-3H-benzimidazol-5-ylamino]-4-[4-(1H-tetrazol-5-yl)benzyl-amino]cyclobut-3-ene-1,2-dione] | > 1000
CCN(CC)CCn1cnc2cc(Nc3c(N[C@H](C)c4cccc(OC)c4)c(=O)c3=O)ccc21 [Compound A168, 3-[1-(2-diethylaminoethyl)-1H-benzimidazol-5-ylamino]-4-[(R)-1-(3-methoxyphenyl)ethyl-amino]cyclobut-3-ene-1,2-dione] | > 1000

The remaining lines, values ahead:

IC50 [nM] | SMILES
> 1000 | O=c1c(NCc2ccc(O)cc2)c(Nc2ccc3[nH]cnc3c2)c1=O [Compound A139, 3-(1H-benzimidazol-5-ylamino)-4-(4-hydroxy-benzylamino)cyclobut-3-ene-1,2-dione]
> 1000 | CN(C)c1ccc(CNc2c(Nc3ccc4[nH]cnc4c3)c(=O)c2=O)cc1 [Compound A147, 3-(1H-benzimidazol-5-ylamino)-4-(4-dimethylaminobenzylamino)cyclobut-3-ene-1,2-dione]
> 1000 | CS(=O)(=O)c1ccc(CNc2c(Nc3ccc4[nH]cnc4c3)c(=O)c2=O)cc1 [Compound A150, 3-(1H-benzimidazol-5-ylamino)-4-(4-methyl-sulfonylbenzylamino)cyclobut-3-ene-1,2-dione]
> 1000 | NS(=O)(=O)c1ccc(CNc2c(Nc3ccc4[nH]cnc4c3)c(=O)c2=O)cc1 [Compound A151, 3-(1H-benzimidazol-5-ylamino)-4-(4-amino-sulfonylbenzylamino)cyclobut-3-ene-1,2-dione]
> 1000 | CS(=O)(=O)Nc1ccc(CNc2c(Nc3ccc4[nH]cnc4c3)c(=O)c2=O)cc1 [Compound A156, 3-(1H-benzimidazol-5-ylamino)-4-(4-methyl-sulfonylaminobenzylamino)cyclobut-3-ene-1,2-dione]
> 1000 | CC(=O)Nc1ccc(CNc2c(Nc3ccc4[nH]cnc4c3)c(=O)c2=O)cc1 [Compound A157, 3-(1H-benzimidazol-5-ylamino)-4-(4-acetamidobenzylamino)cyclobut-3-ene-1,2-dione]
> 1000 | NC(=O)c1ccc(CNc2c(Nc3ccc4[nH]cnc4c3)c(=O)c2=O)cc1 [Compound A159, 3-(1H-benzimidazol-5-ylamino)-4-(4-amino-carbonylbenzylamino)cyclobut-3-ene-1,2-dione]
> 1000 | O=c1[nH]c2cc(CNc3c(Nc4ccc5[nH]cnc5c4)c(=O)c3=O)ccc2o1 [Compound A160, 3-(1H-benzimidazol-5-ylamino)-4-[(2-oxo-2,3-dihydrobenzoxazol-5-ylmethyl)amino]-cyclobut-3-ene-1,2-dione]
> 1000 | O=c1c(NCc2ccc(Cl)c(Cl)c2)c(Nc2ccc3[nH]cnc3c2)c1=O [Compound A162, 3-(1H-benzimidazol-5-ylamino)-4-(3,4-dichlorobenzylamino)cyclobut-3-ene-1,2-dione]
> 1000 | O=c1cnc2ccc(CNc3c(Nc4ccc5[nH]cnc5c4)c(=O)c3=O)cc2[nH]1 [Compound A163, 3-(1H-benzimidazol-5-ylamino)-4-[(3-oxo-3,4-dihydroquinoxalin-6-ylmethyl)amino]cyclobut-3-ene-1,2-dione]
